Data: ChEMBL document CHEMBL1201862, “PubChem BioAssay data set” (2004)
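Growth conditions: 96-well plates. Treatment: test compound, 48 hours, 5 concentrations. Analysis: linear interpolation between bracketing concentrations; unreached endpoints set to highest concentration. GI50: concentration for 50% inhibition of growth.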 Calls of active or inactive are those of the source. No stated cut-off is given here; in the data, active = GI50 up to about 1.1 µM and inactive = higher.

How the values were obtained:
Experiment in all cases: NCI-60 cell line screen, 48 h
NCI-H460 = system: NCI-H460
OVCAR-8 = system: OVCAR-8
BT-549 = system: BT-549
SW-620 = system: SW-620
COLO 205 = system: COLO 205
MOLT-4 = system: MOLT-4
ACHN = system: ACHN
SF-268 = system: SF-268
786-0 = system: 786-0
HOP-92 = system: HOP-92
A498 = system: A498
SF-295 = system: SF-295
SN12C = system: SN12C
Malme-3M = system: Malme-3M
SNB-19 = system: SNB-19
CAKI-1 = system: CAKI-1
SK-OV-3 = system: SK-OV-3
DU-145 = system: DU-145
HCT-15 = system: HCT-15
SK-MEL-28 = system: SK-MEL-28
SK-MEL-2 = system: SK-MEL-2
SK-MEL-5 = system: SK-MEL-5
MDA-N = system: MDA-N
LOX IMVI = system: LOX IMVI
KM12 = system: KM12
OVCAR-3 = system: OVCAR-3
K562 = system: K562
RPMI-8226 = system: RPMI-8226
HT-29 = system: HT-29
Hs-578T = system: Hs-578T
TK-10 = system: TK-10
SNB-75 = system: SNB-75
HCC 2998 = system: HCC 2998
OVCAR-5 = system: OVCAR-5
NCI-H522 = system: NCI-H522
NCI-H226 = system: NCI-H226
M14 = system: M14
NCI-H23 = system: NCI-H23
IGROV-1 = system: IGROV-1
PC-3 = system: PC-3
UO-31 = system: UO-31
MDA-MB-231 = system: MDA-MB-231
HCT-116 = system: HCT-116
UACC-257 = system: UACC-257
NCI/ADR-RES = system: NCI/ADR-RES
MDA-MB-435 = system: MDA-MB-435
CCRF-CEM = system: CCRF-CEM
U-251 = system: U-251
OVCAR-4 = system: OVCAR-4
T47D = system: T47D
HOP-62 = system: HOP-62
A549 = system: A549
RXF 393 = system: RXF 393
UACC-62 = system: UACC-62
SF-539 = system: SF-539
HL-60 = system: HL-60
EKVX = system: EKVX
MCF7 = system: MCF7

## O=C(Cn1c2ccc(Br)cc2c2nc3ccccc3nc21)Nc1ccccc1
NCI-H460
  GI50: 31.8 µM (inactive)
OVCAR-8
  GI50: 15.1 µM (inactive)
BT-549
  GI50: > 100 µM (inactive)
SW-620
  GI50: 24.8 µM (inactive)
COLO 205
  GI50: 50.6 µM (inactive)
MOLT-4
  GI50: > 100 µM (inactive)
ACHN
  GI50: 50 µM (inactive)
SF-268
  GI50: 45.2 µM (inactive)
786-0
  GI50: 14.3 µM (inactive)
HOP-92
  GI50: 14.1 µM (inactive)
A498
  GI50: 34 µM (inactive)
SF-295
  GI50: 31.3 µM (inactive)
SN12C
  GI50: 42.6 µM (inactive)
Malme-3M
  GI50: 28.6 µM (inactive)
SNB-19
  GI50: 39.7 µM (inactive)
CAKI-1
  GI50: 26.8 µM (inactive)
SK-OV-3
  GI50: > 100 µM (inactive)
DU-145
  GI50: 59.2 µM (inactive)
HCT-15
  GI50: 25.1 µM
SK-MEL-28
  GI50: 36.1 µM (inactive)
SK-MEL-2
  GI50: 55 µM (inactive)
SK-MEL-5
  GI50: 34.6 µM (inactive)
MDA-N
  GI50: 37.7 µM (inactive)
LOX IMVI
  GI50: 15.8 µM (inactive)
KM12
  GI50: 56.8 µM (inactive)
OVCAR-3
  GI50: > 100 µM (inactive)
K562
  GI50: 38.8 µM (inactive)
RPMI-8226
  GI50: 37.7 µM (inactive)
HT-29
  GI50: 24.8 µM (inactive)
Hs-578T
  GI50: 26.7 µM (inactive)
TK-10
  GI50: 27.7 µM (inactive)
SNB-75
  GI50: 21.3 µM (inactive)
HCC 2998
  GI50: 34.8 µM (inactive)
OVCAR-5
  GI50: 47 µM (inactive)
NCI-H522
  GI50: 21.6 µM (inactive)
NCI-H226
  GI50: 32.6 µM (inactive)
M14
  GI50: 30.1 µM (inactive)
NCI-H23
  GI50: 28 µM (inactive)
IGROV-1
  GI50: 15.3 µM (inactive)
PC-3
  GI50: 18 µM (inactive)
UO-31
  GI50: 42.2 µM (inactive)
MDA-MB-231
  GI50: 13.3 µM (inactive)
HCT-116
  GI50: 14.5 µM (inactive)
UACC-257
  GI50: 78.2 µM (inactive)
NCI/ADR-RES
  GI50: 20 µM (inactive)
MDA-MB-435
  GI50: 51.4 µM (inactive)
CCRF-CEM
  GI50: 11.9 µM (inactive)
U-251
  GI50: 24 µM (inactive)
OVCAR-4
  GI50: 20.9 µM (inactive)
T47D
  GI50: 20.1 µM (inactive)
HOP-62
  GI50: 27.9 µM (inactive)
A549
  GI50: 17 µM (inactive)
RXF 393
  GI50: 20.2 µM (inactive)
UACC-62
  GI50: 48.1 µM (inactive)

## COc1ccc(/C=C2\CCC(C)/C(=C\c3ccc(OC)c(OC)c3)C2=O)cc1OC (centres undefined)
OVCAR-8
  GI50: 3.76 µM (inactive)
BT-549
  GI50: 4.6 µM (inactive)
SF-539
  GI50: 3.42 µM (inactive)
SW-620
  GI50: 6.59 µM (inactive)
COLO 205
  GI50: 8.39 µM (inactive)
MOLT-4
  GI50: 3.23 µM (inactive)
ACHN
  GI50: 4.79 µM (inactive)
SF-268
  GI50: 6.89 µM (inactive)
786-0
  GI50: 5.11 µM (inactive)
A498
  GI50: 9.08 µM (inactive)
SF-295
  GI50: 5.36 µM (inactive)
SN12C
  GI50: 7.29 µM (inactive)
Malme-3M
  GI50: 4.58 µM (inactive)
SNB-19
  GI50: 11.2 µM (inactive)
CAKI-1
  GI50: 5.82 µM (inactive)
SK-OV-3
  GI50: 9.2 µM (inactive)
DU-145
  GI50: 3.73 µM (inactive)
HCT-15
  GI50: 5.37 µM
SK-MEL-28
  GI50: 10.7 µM (inactive)
HL-60
  GI50: 1.73 µM (inactive)
SK-MEL-2
  GI50: 3.82 µM (inactive)
SK-MEL-5
  GI50: 3.61 µM (inactive)
MDA-N
  GI50: 5.87 µM (inactive)
LOX IMVI
  GI50: 4.33 µM (inactive)
KM12
  GI50: 2.55 µM (inactive)
OVCAR-3
  GI50: 13.6 µM (inactive)
K562
  GI50: 3.36 µM (inactive)
RPMI-8226
  GI50: 2.51 µM (inactive)
HT-29
  GI50: 4.38 µM (inactive)
Hs-578T
  GI50: 12.6 µM (inactive)
TK-10
  GI50: 2.61 µM (inactive)
OVCAR-5
  GI50: 3.59 µM (inactive)
NCI-H226
  GI50: 4.65 µM (inactive)
M14
  GI50: 5.38 µM (inactive)
NCI-H23
  GI50: 3.94 µM (inactive)
IGROV-1
  GI50: 2.88 µM (inactive)
PC-3
  GI50: 3.39 µM (inactive)
EKVX
  GI50: 2.13 µM (inactive)
MCF7
  GI50: 4.85 µM (inactive)
UO-31
  GI50: 8.45 µM (inactive)
MDA-MB-231
  GI50: 7.8 µM (inactive)
HCT-116
  GI50: 3.78 µM (inactive)
UACC-257
  GI50: 2.88 µM (inactive)
NCI/ADR-RES
  GI50: 3.5 µM (inactive)
MDA-MB-435
  GI50: 3.76 µM (inactive)
CCRF-CEM
  GI50: 2.11 µM (inactive)
U-251
  GI50: 5.43 µM (inactive)
T47D
  GI50: 3.35 µM (inactive)
RXF 393
  GI50: 5.06 µM (inactive)
UACC-62
  GI50: 6.21 µM (inactive)
